Reference: US12441763B2, “Hangtaimycin derivatives and their preparation methods and application” (WUHAN UNIVERSITY, priority 2022, dated 2025)

Assays:
breast cancer = assay: Antitumor activity, MTT cell viability, breast cancer; assay type: cell-based; conditions: 50 μg/mL, 24 hours, P<0.01
Description: (§1) In a 96-well microplate, 100 μL of culture medium was put in each well and inoculate four cell strains with a fusion degree of 80% at a density of 8×10^3 cells. Cells were grown at 37° C., CO2 (5%) and air (95%). Each 96-well plate was placed with a concentration gradient of 0˜100 μg/mL of test compounds HTM, HTMA, HTMB, and HTMP. After 24 hours of incubation, the medium was removed, and 0.5 mg/mL MTT solution was added to each medium with cells and continue to incubate the cells for 4 hours at 37° C. Then 100 μL of DMSO was added to dissolve formazan crystals. Finally, absorbance was measured at 570 nm using a microplate reader (Bioteck EON, USA). The viability of the cells was calculated as the percentage of cell viability compared to vehicle control-treated cells, which were arbitrarily assigned as 100% viability. Each independent experiment was repeated five times. (*P<0.05, **P<0.01, ***P<0.001)

HepG2 cells = assay: Cellular assay for hepatoprotective activity, CCl4-induced liver injury cell model; assay type: cell-based; conditions: compared with the CCl4 group; HepG2 cell homogenates
Description: HepG2 cells were seeded into 24-well plates and kept at 37° C. in 5% CO2 in order to achieve 80% fusion. To evaluate the effects of HTMA, HTMB, and HTMP on aspartate aminotransferase (AST) and alanine aminotransferase (ALT) activity, and compare the results with those of Silymarin (positive control) (FIG. 26), a cellular assay for hepatoprotective activity was carried out using a CCl4-induced liver injury cell model. The cells were treated with the compounds followed by ultrasound disruption and cell homogenization to prepare the cell homogenates for analysis.

renal cancer = assay: Antitumor activity, MTT cell viability, renal cancer; assay type: cell-based; conditions: 50 μg/mL, 24 hours, P<0.01
Description: as §1

liver cancer = assay: Antitumor activity, MTT cell viability, liver cancer; assay type: cell-based; conditions: 50 μg/mL, 24 hours, P<0.01
Description: as §1

bladder cancer = assay: Antitumor activity, MTT cell viability, bladder cancer; assay type: cell-based; conditions: 50 μg/mL, 24 hours, P<0.01
Description: as §1

[1] = test system: carrageenan-induced paw inflammation; assay: Anti-inflammatory effect in inflammatory model induced by carrageenan (paw); assay type: in vivo, Kunming mice; conditions: 10 mg/mL, 10 μL subcutaneous into right hind paw; 4 hours after carrageenan injection; vs carrageenan+solvent group; P<0.05
Description: Male Kunming mice weighing 18˜22 g were adaptively reared for 1 day, and then randomly divided into […] (5˜6 mice per group): the saline+solvent group, the saline+HTM group, the saline+HTMP group, the saline+HTMA group, the saline+HTMB group, the saline+rapamycin (250 nM) group, the carrageenan+solvent group, the carrageenan+HTM group, the carrageenan+HTMP group, the carrageenan+HTMA group, the carrageenan+HTMB group, and the carrageenan+rapamycin (250 nM) group. Where doses used for HTM, HTMP, HTMA, and HTMB were set at 1, 3, and 10 mg/mL, and their solutions all contained 5% DMSO. Experiments were designed based on previous studies (Zhang et al., 2018). Carrageenan was used to induce paw inflammation, and the experimental procedure was as follows:
(1) The thickness of the right hind foot of mice was measured with a vernier caliper before the experiment, and the measurement site was marked.
(2) The experimental group was then subcutaneously injected into the right hind paw with 10 μL of different concentrations of compound solutions. The control group was injected with 10 μL saline into the right hind paw.
(3) After administration, the carrageenan group was injected subcutaneously with 30 μL of 1% carrageenan solution into the right hind paw, and the other groups were injected with an equal volume of saline. The thickness of the right hind foot of each mouse was measured at the same site every 1 hour for the following 4 hours to observe the effect of the compounds on the change in foot thickness.

[2] = Antioxidant activity, DPPH free radical scavenging; assay type: biochemical; conditions: 1~50 μg/mL, 0.1 mM DPPH, absorbance at 517 nm
Description: In this experiment, a 0.1 mM DPPH solution was prepared with ethanol, and each sample solution/dispersion was separately mixed with the DPPH solution in order to dilute it into a reaction product with a concentration gradient of 1˜50 μg/mL to evaluate the concentration-dependent antioxidant potential. The reaction product was measured for its absorbance (AS) at 517 nm using an ultraviolet-visible spectrophotometer, and its antioxidant activity was measured using DPPH removal as an indicator. The percentage of DPPH free radical scavenging is calculated by the following formula: […]
AS is the absorbance of the sample and A0 is the absorbance of the control (only DPPH solution).

Deoxyhangtaimycin [HTMP]
survival rate of breast cancer (breast cancer): significantly inhibited
ALT levels (HepG2 cells): significantly reduced
AST levels (HepG2 cells): significantly reduced
survival rate of renal cancer (renal cancer): significantly inhibited
survival rate of liver cancer (liver cancer): significantly inhibited
survival rate of bladder cancer (bladder cancer): significantly inhibited
right hind foot thickness [1]: reduced
antioxidant capacity (DPPH free radical scavenging) [2]: have antioxidant capacity
